Source: patent US20220024877A1 (Kansas State University Research Foundation, priority 2018, published 2022)
Values after ≈ are worked out from the molar mass of the structure shown. Read-outs that look alike come from different tables or passages of the source.

What was measured:
[1] = Copper(I) binding constant of NNSN compounds (1H-NMR titration with CuBr in D4-methanol); conditions: for Binding constant: Cu-NNSN 1:1 stoichiometry; for Copper (I) binding constant: Table I
Procedure: They were recorded in D4-methanol by means of adding aliquots of a 5 mmol CuBr stock solution in D4-methanol to the 1 mmol NNSN-compound, resulting in 0, 0.5, 1.0, 2.0 and 3.0 mmol CuBr concentration in D4-methanol.

[2] = system: MRSA; experiment: In vitro activity against S. aureus (MRSA), MIC with or without Cu supplementation; conditions: for MIC: Staphylococcus aureus, MRSA; for MIC* against MRSA: kinetic data (determined from bacteria growth experiments), resulting in IC50 values similar to MIC values
Procedure: S. aureus was inoculated in Mueller-Hinton medium from frozen stocks and grown for 2-4 h (until reaching an OD600˜1) at 37° C. while shaking. Once the OD was reached, bacteria were harvested and diluted in Phenolred-free RPMI1640 medium to an OD of 0.01 (=inoculum). Test compounds where diluted from frozen DMSO-stocks were diluted in Phenolred-free RPMI1640 medium with or without Cu supplementation (100 μM) and serially diluted in 96-well plates in the same medium to achieve a final concentration of between 0.08 and 10 μM after addition of an equal volume of inoculum. Medium-only controls and growth controls in the absence of test compounds were also included. The plates were placed in sealed bags and incubated at 37° C. After 15-20 h incubation time, an OD600 reading was taken and analyzed. […] If kinetic data were required, resazurin was added to each well. Using a plate reader with incubation chamber, resazurin conversion was monitored by fluorescence reading every 20 min for up to 24 h. After normalizing the data to respective controls, the MIC was determined using the same definition as above.

[3] = Therapeutic index (approx.)
[4] = log P (octanol/water partition coefficient); assay type: physicochemical
[5] = system: S. aureus strain 1471; experiment: Drop assay against S. aureus strain 1471 with or without copper
Procedure: For the drop assay, bacteria were grown in wells with or without copper, using a 1:2 drug titration starting at 10 μM.

[6] = system: Avirulent Mtb strain mc26206 (H37Rv ΔpanCD ΔleuCD, double auxotroph); experiment: microbe, parasite or virus in culture; assay type: cell-based; conditions: Mycobacterium tuberculosis
[7] = system: multi-drug resistant Gram-positive bacteria; conditions: current antibiotics, background section; cited from earlier work
[8] = read-out: MIC* against MRSA (μM), kinetic data (determined from bacteria growth experiments), resulting in IC50 values similar to MIC values
[9] = Staphylococcus aureus, MRSA, read-out: MIC against MRSA (clinical isolate 1471)
[10] = Staphylococcus aureus, 1471, read-out: MIC: +50 μM Cu

S=C(Nc1ccc(Cl)cc1)n1cccn1 [listing 1 of 2 here]
Binding constant [1]: 2100 M⁻¹
Copper (I) binding constant [1]: 2100 M⁻¹
MIC ([2]; organism not named there): 5 µM (≈ 1.19 µg/mL)
MIC* against MRSA [2]: 5.0 µM (≈ 1.19 µg/mL)

S=C(Nc1ccc(Cl)cc1)n1cccn1 [listing 2 of 2 here]
Copper (I) binding constant [1]: 1434 M⁻¹
MIC* against MRSA [2]: 1.25 µM (≈ 0.297 µg/mL)

CC(C)(C)n1ccc(NC(=O)Nc2ccc(Cl)cc2)n1 [SB10, 1-(1-(tert-butyl)-1H-pyrazol-3-yl)-3-(4-chlorophenyl)urea]
Binding constant [1]: 1786.13 M⁻¹

Cn1ccc(NC(=O)Nc2ccc(Cl)cc2)n1 [SB11, 1-(4-chlorophenyl)-3-(1-methyl-1H-pyrazol-3-yl)urea]
Binding constant [1]: < 100 M⁻¹

S=C(Nc1ccc(Cl)cc1)n1ccnn1 [SB18]
Binding constant [1]: < 1000 M⁻¹

FC(F)(F)c1ccn(C(=S)Nc2ccc(Cl)cc2)n1 [SB20]
Binding constant [1]: < 1000 M⁻¹

O=[N+]([O-])c1ccc(NC(=S)n2cccn2)cc1 [SB21, N-(4-nitrophenyl)-1H-pyrazole-1-carbothioamide]
Binding constant [1]: 26063 M⁻¹
MIC ([2]; organism not named there): 10 µM (≈ 2.48 µg/mL)

COc1ccc(NC(=S)n2cccn2)cc1 [SB22, N-(4-methoxyphenyl)-1H-pyrazole-1-carbothioamide]
Binding constant [1]: 3975 M⁻¹
Copper (I) binding constant [1]: 3975 M⁻¹
Therapeutic index (approx.) [3]: >2
MIC [2, 8]: 10 µM (≈ 2.33 µg/mL)
MIC ([2]; organism not named there): 10 µM (≈ 2.33 µg/mL)

Fc1ccc(NC(=S)n2cccn2)cc1 [SB23, N-(4-fluorophenyl)-1H-pyrazole-1-carbothioamide]
Binding constant [1]: 22057 M⁻¹
MIC ([2]; organism not named there): > 10 µM

Cc1ccc(NC(=S)n2cccn2)cc1 [SB25, N-(p-tolyl)-1H-pyrazole-1-carbothioamide]
Copper (I) binding constant [1]: 1635 M⁻¹
MIC [2, 8]: 5 µM (≈ 1.09 µg/mL)

S=C(Nc1ccc(Br)cc1)n1cccn1 [SB26, N-(4-bromophenyl)-1H-pyrazole-1-carbothioamide]
Copper (I) binding constant [1]: 1550 M⁻¹
MIC [2, 8]: 10 µM (≈ 2.82 µg/mL)

O=[N+]([O-])c1ccc(NC(=S)Nc2cc[nH]n2)cc1 [SB28, 1-(4-nitrophenyl)-3-(1H-pyrazol-3-yl)thiourea]
Binding constant [1]: 1200 M⁻¹
MIC ([2]; read-out: MIC (MRSA), MRSA): 5 µM (≈ 1.32 µg/mL)

Cn1ccc(NC(=S)Nc2ccc(Cl)cc2)n1 [SB29]
Binding constant [1]: 1150 M⁻¹

O=[N+]([O-])c1cnn(C(=S)Nc2ccc(Cl)cc2)c1 [SB30, N-(4-chlorophenyl)-4-nitro-1H-pyrazole-1-carbothioamide]
Binding constant [1]: 1100 M⁻¹

COc1ccc(NC(=S)n2ccc(N)n2)cc1 [SB31, 3-amino-N-(4-methoxyphenyl)-1H-pyrazole-1-carbothioamide]
Copper (I) binding constant [1]: 5452 M⁻¹
MIC [2, 8]: 10 µM (≈ 2.48 µg/mL)

Cc1ccc(NC(=S)n2ccc(N)n2)cc1 [SB32, 3-amino-N-(p-tolyl)-1H-pyrazole-1-carbothioamide]
Copper (I) binding constant [1]: 6140 M⁻¹
MIC [2, 8]: 2.5 µM (≈ 0.581 µg/mL)

Nc1ccn(C(=S)Nc2ccc(Br)cc2)n1 [SB33, 3-amino-N-(4-bromophenyl)-1H-pyrazole-1-carbothioamide]
Copper (I) binding constant [1]: 5830 M⁻¹
MIC [2, 8]: 1.25 µM (≈ 0.371 µg/mL)

Nc1ccn(C(=S)Nc2ccc(F)cc2)n1 [SB37, 3-amino-N-(4-fluorophenyl)-1H-pyrazole-1-carbothioamide]
Copper (I) binding constant [1]: 5540 M⁻¹
MIC [2, 8]: 10 µM (≈ 2.36 µg/mL)

O=[N+]([O-])c1cnn(C(=S)Nc2ccc(Cl)cc2)c1 [SB38]
Binding constant [1]: < 100 M⁻¹

Nc1cnn(C(=S)Nc2ccc(Cl)cc2)c1 [SB39]
Binding constant [1]: 2200 M⁻¹

CN(C)c1ccn(C(=S)Nc2ccc(Cl)cc2)n1 [SB40, N-(4-chlorophenyl)-3-(dimethylamino)-1H-pyrazole-1-carbothioamide]
Copper (I) binding constant [1]: 58500 M⁻¹
MIC [2, 8]: 0.6 µM (≈ 0.168 µg/mL)

S=C(Nc1ccc(Cl)cc1)n1ccc(OCc2ccccc2)n1 [SB44, 3-(benzyloxy)-N-(4-chlorophenyl)-1H-pyrazole-1-carbothioamide]
logP [4]: 4.74
MIC [5, 9]: 0.15 µM (≈ 0.0516 µg/mL)
MIC [2, 8]: 0.15 µM (≈ 0.0516 µg/mL)

CN(C(=S)Nc1ccc(Cl)cc1)c1ccn(C(=S)Nc2ccc(Cl)cc2)n1 [SB45, N-(4-chlorophenyl)-3-(3-(4-chlorophenyl)-1-methylthioureido)-1H-pyrazole-1-carbothioamide]
IC50 ([6]; read-out: IC50 +Cu): 2 µM
IC50 ([6]; read-out: IC50 −Cu): > 50 µM
MIC90 ([6]; read-out: MIC90 +Cu): 3.5 µM (≈ 1.53 µg/mL)
MIC90 ([6]; read-out: MIC90 −Cu): > 100 µM
MIC [2, 8]: < 0.016 µM

S=C(Nc1ccccc1Cl)n1cccn1 [SB46, N-(2-chlorophenyl)-1H-pyrazole-1-carbothioamide]
IC50 ([6]; read-out: IC50 +Cu): 10 µM
IC50 ([6]; read-out: IC50 −Cu): > 100 µM
MIC90 ([6]; read-out: MIC90 +Cu): > 100 µM
MIC90 ([6]; read-out: MIC90 −Cu): > 100 µM
MIC [2, 8]: 0.3 µM (≈ 0.0713 µg/mL)

Cc1nn(C(=S)Nc2ccc(Cl)cc2)cc1[N+](=O)[O-] [SB47, N-(4-chlorophenyl)-3-methyl-4-nitro-1H-pyrazole-1-carbothioamide]
MIC [2, 8]: 2.5 µM (≈ 0.742 µg/mL)

Nc1ccn(C(=S)Nc2ccccc2Cl)n1 [SB49, 3-amino-N-(2-chlorophenyl)-1H-pyrazole-1-carbothioamide]
MIC [2, 8]: 0.6 µM (≈ 0.152 µg/mL)

Nc1ccn(C(=S)Nc2cccc(Cl)c2)n1 [SB50, 3-amino-N-(3-chlorophenyl)-1H-pyrazole-1-carbothioamide]
MIC [2, 8]: 0.15 µM (≈ 0.0379 µg/mL)

S=C(Nc1cccc(Cl)c1)n1cccn1 [SB52, N-(3-chlorophenyl)-1H-pyrazole-1-carbothioamide]
MIC [2, 8]: 2.5 µM (≈ 0.594 µg/mL)

S=C(Nc1ccn(C(=S)Nc2ccccc2Cl)n1)Nc1ccccc1Cl [SB53, N-(2-chlorophenyl)-3-(3-(2-chlorophenyl)thioureido)-1H-pyrazole-1-carbothioamide]
MIC [2, 8]: 0.3 µM (≈ 0.127 µg/mL)

CN(C(=S)Nc1cccc(Cl)c1)c1ccn(C(=S)Nc2cccc(Cl)c2)n1 [SB54, N-(3-chlorophenyl)-3-(3-(3-chlorophenyl)-1-methylthioureido)-1H-pyrazole-1-carbothioamide]
logP [4]: 5.9
MIC [5, 10]: 0.15 µM (≈ 0.0655 µg/mL)
MIC [5, 9]: 0.15 µM (≈ 0.0655 µg/mL)

CN(C(=S)Nc1ccccc1Cl)c1ccn(C(=S)Nc2ccccc2Cl)n1 [SB55, N-(2-chlorophenyl)-3-(3-(2-chlorophenyl)-1-methylthioureido)-1H-pyrazole-1-carbothioamide]
MIC [5, 10]: 10 µM (≈ 4.36 µg/mL)

O=[N+]([O-])c1cnn(C(=S)Nc2ccccc2Cl)c1 [SB56, N-(2-chlorophenyl)-4-nitro-1H-pyrazole-1-carbothioamide]
MIC [5, 10]: 5 µM (≈ 1.41 µg/mL)

S=C(Nc1cccc(Cl)c1)Nc1ccn(C(=S)Nc2cccc(Cl)c2)n1 [SB57, N-(3-chlorophenyl)-3-(3-(3-chlorophenyl)thioureido)-1H-pyrazole-1-carbothioamide]
MIC [5, 10]: 0.6 µM (≈ 0.253 µg/mL)

O=[N+]([O-])c1cnn(C(=S)Nc2cccc(Cl)c2)c1 [SB59, N-(3-chlorophenyl)-4-nitro-1H-pyrazole-1-carbothioamide]
MIC [5, 10]: 2.5 µM (≈ 0.707 µg/mL)

Cc1ccn(C(=S)Nc2ccccc2Cl)n1 [SB60, N-(2-chlorophenyl)-3-methyl-1H-pyrazole-1-carbothioamide]
MIC [5, 10]: 1.25 µM (≈ 0.315 µg/mL)

Nc1cnn(C(=S)NCc2ccccc2Cl)c1 [SB62, 4-amino-N-(2-chlorobenzyl)-1H-pyrazole-1-carbothioamide]
MIC [5, 10]: 5 µM (≈ 1.33 µg/mL)

O=[N+]([O-])c1ccc(COc2ccn(C(=S)Nc3ccc(Cl)cc3)n2)cc1 [SB63, N-(4-chlorophenyl)-3-((4-nitrobenzyl)oxy)-1H-pyrazole-1-carbothioamide]
MIC ([2]; organism not named there): > 10 µM

S=C(Nc1ccccc1Cl)n1ccc(OCc2ccccc2)n1 [SB64, 3-(benzyloxy)-N-(2-chlorophenyl)-1H-pyrazole-1-carbothioamide]
IC50 ([6]; read-out: IC50 +Cu): 0.8 µM
IC50 ([6]; read-out: IC50 −Cu): > 100 µM
MIC90 ([6]; read-out: MIC90 +Cu): 1.6 µM (≈ 0.55 µg/mL)
MIC90 ([6]; read-out: MIC90 −Cu): > 100 µM

S=C(Nc1ccc(Cl)cc1)n1cc(Br)cn1 [SB68, 4-bromo-N-(4-chlorophenyl)-1H-pyrazole-1-carbothioamide]
MIC ([2]; organism not named there): 10 µM (≈ 3.17 µg/mL)

Cc1cccc(C)c1NC(=S)n1cccn1 [SB71, N-(2,6-dimethylphenyl)-1H-pyrazole-1-carbothioamide]
MIC ([2]; organism not named there): 0.6 µM (≈ 0.139 µg/mL)

Cc1ccn(C(=S)Nc2c(C)cccc2C)n1 [SB72, N-(2,6-dimethylphenyl)-3-methyl-1H-pyrazole-1-carbothioamide]
MIC ([2]; organism not named there): 0.6 µM (≈ 0.147 µg/mL)

COC(=O)c1ccn(C(=S)Nc2ccccc2Cl)n1 [SB73]
Copper (I) binding constant [1]: 985.27 M⁻¹
MIC [2, 8]: 5 µM (≈ 1.48 µg/mL)

COC(=O)c1ccn(C(=S)Nc2cccc(Cl)c2)n1 [SB74, Methyl 1-((3-chlorophenyl)carbamothioyl)-1H-pyrazole-3-carboxylate]
Copper (I) binding constant [1]: 1127.86 M⁻¹
MIC [2, 8]: 2.5 µM (≈ 0.739 µg/mL)

CCOC(=O)c1ccn(C(=S)Nc2ccc(Cl)cc2)n1 [SB77]
Copper (I) binding constant [1]: 1580.08 M⁻¹
MIC [2, 8]: 0.6 µM (≈ 0.186 µg/mL)

Nc1ccn(C(=S)Nc2ccc(N=C=S)cc2)n1 [SB79, 3-amino-N-(4-isothiocyanatophenyl)-1H-pyrazole-1-carbothioamide]
IC50 ([6]; read-out: IC50 +Cu): > 100 µM
IC50 ([6]; read-out: IC50 −Cu): > 100 µM
MIC90 ([6]; read-out: MIC90 +Cu): > 100 µM
MIC90 ([6]; read-out: MIC90 −Cu): > 100 µM

CN[C@H](CC(C)C)C(=O)N[C@H]1C(=O)N[C@@H](CC(N)=O)C(=O)N[C@H]2C(=O)N[C@H]3C(=O)N[C@H](C(=O)N[C@H](C(=O)O)c4cc(O)cc(O)c4-c4cc3ccc4O)[C@H](O)c3ccc(c(Cl)c3)Oc3cc2cc(c3O[C@@H]2O[C@H](CO)[C@@H](O)[C@H](O)[C@H]2O[C@H]2C[C@](C)(N)[C@H](O)[C@H](C)O2)Oc2ccc(cc2Cl)[C@H]1O [Vancomycin]
minimum inhibitory concentrations (MICs) [7]: 2.2 µM (≈ 3.19 µg/mL)

Daptinomycin
minimum inhibitory concentrations (MICs) [7]: 0.6 µM

Teicoplanin
minimum inhibitory concentrations (MICs) [7]: 0.8 to 1.0 µM
